Source: US9156796B2, “Benzoimidazole-carboxylic acid amide derivatives as APJ receptor modulators” (SANOFI, priority 2013, dated 2015)

These compounds were tested against T1, human apelin receptor (Homo sapiens, UniProt P35414) (assay: Determination of agonism on the human apelin receptor by a calcium fluorescence assay (FLIPR)). Settings: EC50 (APJ agonism), HEK293 cells stably transfected with human apelin receptor and Giaq protein, Fluo-4 calcium fluorescence.
T1 construct: expressed in transfected cells
T1 sequence (P35414 1-380): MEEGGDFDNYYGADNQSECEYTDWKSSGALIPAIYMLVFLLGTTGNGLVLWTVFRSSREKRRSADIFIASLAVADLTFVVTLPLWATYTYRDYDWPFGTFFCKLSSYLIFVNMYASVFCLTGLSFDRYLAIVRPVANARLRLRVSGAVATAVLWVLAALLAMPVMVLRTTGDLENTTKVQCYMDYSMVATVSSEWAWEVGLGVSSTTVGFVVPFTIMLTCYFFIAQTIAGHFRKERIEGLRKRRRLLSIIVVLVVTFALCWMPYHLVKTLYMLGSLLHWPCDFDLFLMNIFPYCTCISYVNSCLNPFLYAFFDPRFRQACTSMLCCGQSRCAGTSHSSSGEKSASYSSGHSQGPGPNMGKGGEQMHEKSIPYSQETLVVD
Assay type: cell-based
How it was run: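 Agonist EC50s come from peak intracellular calcium transients recorded by FLIPR Tetra, scaled to the 1 μM apelin-13 maximum per plate. Test system: HEK293 stably transfected with human apelin receptor plus Giaq, Fluo-4-loaded (4 μM, 1 h, 37 °C, pH 7.4 buffer with probenecid); ≥7 concentrations, triplicates.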

**Q.** `CCC(CC)n1c(CC2CCCC2)nc2cc(C(=O)N[C@H](CO)CCSC)ccc21` [Example 178, 2-Cyclopentylmethyl-1-(1-ethyl-propyl)-1H-benzoimidazole-5-carboxylic acid ((S)-1-hydroxymethyl-3-methylsulfanyl-propyl)-amide] was tested. Which EC50 did it give?
**A.** 17.4 µM

**Q.** Which EC50 does the source give for `CCCCC(CO)NC(=O)c1ccc2c(c1)nc(CC1CCCC1)n2C(CC)CC` (stereo not shown) [Example 182, 2-Cyclopentylmethyl-1-(1-ethyl-propyl)-1H-benzoimidazole-5-carboxylic acid (1-hydroxymethyl-pentyl)-amide] here?
**A.** 11 µM

**Q.** Which EC50 does the source give for `CCCC[C@H](CO)NC(=O)c1ccc2c(c1)nc(CC1CCCC1)n2C(CC)CC` [Example 183, 2-Cyclopentylmethyl-1-(1-ethyl-propyl)-1H-benzoimidazole-5-carboxylic acid ((R)-1-hydroxymethyl-pentyl)-amide] here?
**A.** 26.3 µM

**Q.** How did the EC50 turn out when `CCCC[C@@H](CO)NC(=O)c1ccc2c(c1)nc(CC1CCCC1)n2C(CC)CC` [Example 184, 2-Cyclopentylmethyl-1-(1-ethyl-propyl)-1H-benzoimidazole-5-carboxylic acid ((S)-1-hydroxymethyl-pentyl)-amide] was run?
**A.** 2.9 µM

Same assay, conditions: HEK293 cells stably transfected with human apelin receptor and Giaq protein, Fluo-4 calcium fluorescence, read-out: EC50 (APJ agonism)

**Q.** How did the EC50 turn out when `CCCC(CC(=O)O)NC(=O)c1ccc2c(c1)nc(Cc1cccs1)n2C(CC)CC` (stereo not shown) [Example 155, 3-{[1-(1-Ethyl-propyl)-2-thiophen-2-ylmethyl-1H-benzoimidazole-5-carbonyl]-amino}-hexanoic acid] was run?
**A.** 0.5 µM

**Q.** Which EC50 does the source give for `CCC(CC)n1c(Cc2ccsc2)nc2cc(C(=O)N[C@H](CC(=O)O)CC(C)C)ccc21` [Example 156, (S)-3-{[1-(1-Ethyl-propyl)-2-thiophen-3-ylmethyl-1H-benzoimidazole-5-carbonyl]-amino}-5-methyl-hexanoic acid] here?
**A.** 0.21 µM

**Q.** How did the EC50 turn out when `CCC(CC)n1c(Cc2ccccc2)nc2cc(C(=O)N[C@H](CC(=O)O)CC(C)C)ccc21` [Example 157, (S)-3-{[2-Benzyl-1-(1-ethyl-propyl)-1H-benzoimidazole-5-carbonyl]-amino}-5-methyl-hexanoic acid] was run?
**A.** 10 µM

**Q.** How did the EC50 turn out when `CCC(CC)n1c(CC2CCCC2)nc2cc(C(=O)N[C@H](CC(=O)O)CC(C)C)ccc21` [Example 158, (S)-3-{[2-Cyclopentylmethyl-1-(1-ethyl-propyl)-1H-benzoimidazole-5-carbonyl]-amino}-5-methyl-hexanoic acid] was run?
**A.** 0.515 µM

**Q.** For `CCC(C)Cn1c(CC2CCCC2)nc2cc(C(=O)N[C@H](CC(=O)O)CC(C)C)ccc21` (stereo partly drawn) [Example 159, (S)-3-{[2-Cyclopentylmethyl-1-(2-methyl-butyl)-1H-benzoimidazole-5-carbonyl]-amino}-5-methyl-hexanoic acid], which EC50 is on record?
**A.** 15 µM

**Q.** `CCC(CC)n1c(CC2CCCO2)nc2cc(C(=O)N[C@H](CC(=O)O)CC(C)C)ccc21` (stereo partly drawn) [Example 160, (S)-3-{[1-(1-Ethyl-propyl)-2-(tetrahydro-furan-2-ylmethyl)-1H-benzoimidazole-5-carbonyl]-amino}-5-methyl-hexanoic acid] was tested. Which EC50 did it give?
**A.** 0.82 µM

**Q.** Which EC50 does the source give for `CCC(CC)n1c(Cc2cccs2)nc2cc(C(=O)N[C@H](CC(=O)O)C(C)C)ccc21` [Example 161, (R)-3-{[1-(1-Ethyl-propyl)-2-thiophen-2-ylmethyl-1H-benzoimidazole-5-carbonyl]-amino}-4-methyl-pentanoic acid] here?
**A.** 2.3 µM

**Q.** Which EC50 does the source give for `CCC(CC)n1c(Cc2cccs2)nc2cc(C(=O)N[C@H](CCC(=O)O)C(C)C)ccc21` [Example 162, (R)-4-{[1-(1-Ethyl-propyl)-2-thiophen-2-ylmethyl-1H-benzoimidazole-5-carbonyl]-amino}-5-methyl-hexanoic acid] here?
**A.** 1.1 µM

**Q.** `CCC(CC)n1c(Cc2cccs2)nc2cc(C(=O)N[C@H](CCC(=O)O)CC(C)C)ccc21` [Example 163, (R)-4-{[1-(1-Ethyl-propyl)-2-thiophen-2-ylmethyl-1H-benzoimidazole-5-carbonyl]-amino}-6-methyl-heptanoic acid] was tested. Which EC50 did it give?
**A.** 0.051 µM

**Q.** Which EC50 does the source give for `CC(C)C[C@H](NC(=O)c1ccc2c(c1)nc(Cc1cccs1)n2C(C(C)C)C(C)C)C(=O)O` [Example 164, (S)-2-{[1-(1-Isopropyl-2-methyl-propyl)-2-thiophen-2-ylmethyl-1H-benzoimidazole-5-carbonyl]-amino}-4-methyl-pentanoic acid] here?
**A.** 6.35 µM

**Q.** Which EC50 does the source give for `CC(C)C[C@H](NC(=O)c1ccc2c(c1)nc(Cc1cccs1)n2-c1ccccc1Cl)C(=O)O` [Example 165, (S)-2-{[1-(2-Chloro-phenyl)-2-thiophen-2-ylmethyl-1H-benzoimidazole-5-carbonyl]-amino}-4-methyl-pentanoic acid] here?
**A.** 1.01 µM

**Q.** `CC(C)CC(C)n1c(Cc2cccs2)nc2cc(C(=O)N[C@@H](CC(C)C)C(=O)O)ccc21` (stereo partly drawn) [Example 166, (S)-2-{[1-(1,3-Dimethyl-butyl)-2-thiophen-2-ylmethyl-1H-benzoimidazole-5-carbonyl]-amino}-4-methyl-pentanoic acid] was tested. Which EC50 did it give?
**A.** 3.04 µM

**Q.** How did the EC50 turn out when `CCC(CC)n1c(CC2CCCC2)nc2cc(C(=O)N[C@H](CO)CC3CCCCC3)ccc21` [Example 167, 2-Cyclopentylmethyl-1-(1-ethyl-propyl)-1H-benzoimidazole-5-carboxylic acid ((S)-1-cyclohexylmethyl-2-hydroxy-ethyl)-amide] was run?
**A.** 7.55 µM

**Q.** For `CC(C)C[C@H](NC(=O)c1ccc2c(c1)nc(Cc1cccs1)n2C1CCCCC1)C(N)=O` [Example 168, 1-Cyclohexyl-2-thiophen-2-ylmethyl-1H-benzoimidazole-5-carboxylic acid ((S)-1-carbamoyl-3-methyl-butyl)-amide], which EC50 is on record?
**A.** 4.53 µM

**Q.** How did the EC50 turn out when `CCC(CC)n1c(CC2CCCC2)nc2cc(C(=O)NC(CC(C)C)C(N)=O)ccc21` (stereo not shown) [Example 169, 2-Cyclopentylmethyl-1-(1-ethyl-propyl)-1H-benzoimidazole-5-carboxylic acid (1-carbamoyl-3-methyl-butyl)-amide] was run?
**A.** 6.65 µM

**Q.** With `CCC(CC)n1c(Cc2cccs2)nc2cc(C(=O)NC(C(N)=O)c3ccccc3)ccc21` (stereo not shown) [Example 170, 1-(1-Ethyl-propyl)-2-thiophen-2-ylmethyl-1H-benzoimidazole-5-carboxylic acid (carbamoyl-phenyl-methyl)-amide] as the compound, how does the EC50 read?
**A.** 10.1 µM

**Q.** `CCC(CC)n1c(Cc2cccs2)nc2cc(C(=O)NC(CC(C)C)C(N)=O)ccc21` (stereo not shown) [Example 171, 1-(1-Ethyl-propyl)-2-thiophen-2-ylmethyl-1H-benzoimidazole-5-carboxylic acid (1-carbamoyl-3-methyl-butyl)-amide] was tested. Which EC50 did it give?
**A.** 0.748 µM

**Q.** With `CCC(CC)n1c(Cc2cscn2)nc2cc(C(=O)N[C@@H](CC(C)C)C(N)=O)ccc21` [Example 172, 1-(1-Ethyl-propyl)-2-thiazol-4-ylmethyl-1H-benzoimidazole-5-carboxylic acid ((S)-1-carbamoyl-3-methyl-butyl)-amide] as the compound, how does the EC50 read?
**A.** 4.89 µM

**Q.** For `CCC(CC)n1c(Cc2cccs2)nc2cc(C(=O)N[C@@H](CC3CCCCC3)C(N)=O)ccc21` [Example 173, 1-(1-Ethyl-propyl)-2-thiophen-2-ylmethyl-1H-benzoimidazole-5-carboxylic acid ((S)-1-carbamoyl-2-cyclohexyl-ethyl)-amide], which EC50 is on record?
**A.** 6.7 µM

**Q.** Which EC50 does the source give for `CCC(CC)n1c(Cc2cccs2)nc2cc(C(=O)NC(CC(N)=O)CC(C)C)ccc21` (stereo not shown) [Example 174, 1-(1-Ethyl-propyl)-2-thiophen-2-ylmethyl-1H-benzoimidazole-5-carboxylic acid (1-carbamoylmethyl-3-methyl-butyl)-amide] here?
**A.** 0.301 µM

**Q.** Which EC50 does the source give for `CCC(CC)n1c(CC2CCCC2)nc2cc(C(=O)N[C@H](CO)CC(C)C)ccc21` [Example 175, 2-Cyclopentylmethyl-1-(1-ethyl-propyl)-1H-benzoimidazole-5-carboxylic acid ((S)-1-hydroxymethyl-3-methyl-butyl)-amide] here?
**A.** 0.501 µM

**Q.** Which EC50 does the source give for `CCC(CC)n1c(CC2CCCC2)nc2cc(C(=O)N[C@@H](CO)CC(C)C)ccc21` [Example 176, 2-Cyclopentylmethyl-1-(1-ethyl-propyl)-1H-benzoimidazole-5-carboxylic acid ((R)-1-hydroxymethyl-3-methyl-butyl)-amide] here?
**A.** 8.91 µM

**Q.** For `CCC(CC)n1c(Cc2cccs2)nc2cc(C(=O)N[C@H](CO)CC3CCCCC3)ccc21` [Example 177, 1-(1-Ethyl-propyl)-2-thiophen-2-ylmethyl-1H-benzoimidazole-5-carboxylic acid ((S)-1-cyclohexylmethyl-2-hydroxy-ethyl)-amide], which EC50 is on record?
**A.** 2.42 µM

**Q.** `CCC(CC)n1c(CC2CCCC2)nc2cc(C(=O)NC3(CO)CCCC3)ccc21` [Example 179, 2-Cyclopentylmethyl-1-(1-ethyl-propyl)-1H-benzoimidazole-5-carboxylic acid (1-hydroxymethyl-cyclopentyl)-amide] was tested. Which EC50 did it give?
**A.** 25.2 µM

**Q.** Which EC50 does the source give for `CCC(CC)n1c(CC2CCCC2)nc2cc(C(=O)N[C@H](CO)[C@@H](C)CC)ccc21` [Example 180, 2-Cyclopentylmethyl-1-(1-ethyl-propyl)-1H-benzoimidazole-5-carboxylic acid ((1S,2S)-1-hydroxymethyl-2-methyl-butyl)-amide] here?
**A.** 6.17 µM

**Q.** With `CCCC(CO)NC(=O)c1ccc2c(c1)nc(CC1CCCC1)n2C(CC)CC` (stereo not shown) [Example 181, 2-Cyclopentylmethyl-1-(1-ethyl-propyl)-1H-benzoimidazole-5-carboxylic acid (1-hydroxymethyl-butyl)-amide] as the compound, how does the EC50 read?
**A.** 6.95 µM

**Q.** With `CCC[C@H](CO)NC(=O)c1ccc2c(c1)nc(CC1CCCC1)n2C(CC)CC` [Example 185, 2-Cyclopentylmethyl-1-(1-ethyl-propyl)-1H-benzoimidazole-5-carboxylic acid ((R)-1-hydroxymethyl-butyl)-amide] as the compound, how does the EC50 read?
**A.** 14.1 µM
